According to PMC12084297, “Cytoplasmic connexin43-microtubule interactions promote glioblastoma stem-like cell maintenance and tumorigenicity” (Cell Death & Disease, 2025):

Assays:
Notch1 = Notch1 protein expression, immunoblot, VTC-037 GSCs; type: cell-based, human; settings: 50 μM, 24 h
Protocol: Cells were lysed in RIPA buffer (0.1% sodium dodecyl sulphate, 50 mM Tris pH 7.4, 150 mM NaCl, 1 mM EDTA, 1% Triton X-100, 1% deoxycholic acid, 200 μM Na3VO4, and 1 mM NaF) supplemented with Halt^TM Protease and Phosphatase Inhibitor Cocktail (Thermo Fisher). Lysates were sonicated prior to centrifugation at 4 °C for 20 min at 10,000 x g. Protein concentration was quantified using the DC protein assay (Bio-Rad Laboratories) and a standard curve obtained with increasing concentrations of Bovine Serum Albumin (BSA; Fisher Scientific). Protein samples were normalized to 20 μg total protein per lane and resolved by SDS-PAGE electrophoresis. 4X Bolt LDS sample buffer supplemented with 400 mM DTT (final concentration 1X Bolt LDS with 100 mM DTT) was added to samples before heating at 70 °C for 10 min. SDS-PAGE was run using NuPAGE Bis-Tris 4%–12% gradient gels (Thermo Fisher) with MES or MOPS running buffer according to manufacturer’s instructions. Spectra™ Multicolor Protein Ladder (Thermo Fisher) or Precision Plus Protein™ Kaleidoscope™ Prestained Protein Standards (Bio-Rad Laboratories) were included as protein ladders on the same gels. […] Membranes were imaged on a ChemiDoc™ imaging system, and analyzed with Image Lab software (Bio-Rad Laboratories). […]

LN229/GSC tumor = LN229/GSC tumor growth in mouse flank; type: in vivo, mouse (BALB/c nude), human LN229/GSC cells
Text: Animal studies were approved by the Institutional Animal Care and Use Committee (IACUC) of Virginia Tech. Female athymic nude mice (Envigo) aged 6-8 weeks were used for the maintenance and propagation of PDX GBM22 cells. PDX GBM22 tumors were maintained by serial passage in nude mouse flanks as described previously. Briefly, tumors were harvested 14–18 days post-injection and glioblastoma cells were mechanically and enzymatically dissociated. Cells were passed through a 40 µm filter and maintained as gliospheres in DMEM/F-12 without phenol red and with L-glutamine (Thermo Fisher), supplemented with 10 ng/ml fibroblast growth factor (Thermo Fisher), 10 ng/ml epidermal growth factor (Thermo Fisher), Gibco B-27 Supplement without vitamin A (Thermo Fisher), amphotericin (Fisher), and gentamycin (Fisher). The medium was changed daily for 2 days. […] After 2 days, tumors were measured and mice were randomly separated into three groups (7 mice per group), and vehicle/control (PBS), JM2-scrambled or JM2 were administered at 300 μM intratumorally every day for 14 days. Tumors were then measured by blinded investigators and harvested for analysis (see section below). Tumor volume was calculated using the formula (length × width^2)/2. […] After 7 days, tumors were measured and mice were randomly separated into three groups; vehicle/control (PBS), JM2-scrambled, and JM2 (3 mice per group). […] Tumor sizes were measured by electronic calipers at different times by blinded investigators, and tumor volume was calculated using the formula (length × width^2)/2.
All quantification was performed on experiments repeated at least three times. […] Data were analyzed for significance using Student’s t test, one-way ANOVA with Tukey’s multiple comparisons test, and presented as mean ± SD. […] Statistical significance between experimental groups was determined using chi-square (χ²) tests within the ELDA framework. […]

VTC-037 GSCs = experiment: Peptide uptake by confocal Z-stack with WGA, VTC-037 GSCs; type: in vitro ADME, human; settings: 50 μM, 24 h, WGA membrane label
[1] = LN229/GSC model, 300 µM intratumorally every other day, first 31 days, n = 3

For VFFKGVKDRVKGRSD [JM2], the Notch1 protein expression (Notch1) was “significantly decreased Notch1 expression at the protein level”, the “Tumor growth, LN229/GSC model” value (LN229/GSC tumor; 300 μM intratumorally every other day, 24 days, after 33 days, n = 3 mice per group, compared to control or JM2-scrambled) was “significant decrease in tumor growth” and the “t(87) statistic, rate of tumor growth, JM2 vs Control” value (LN229/GSC tumor; [1]) was -5.081. For the same sequence, the “t(87) statistic, rate of tumor growth, JM2 vs JM2-scrambled” value (LN229/GSC tumor; [1]) was -3.873 and the “Peptide enrichment within cells (Z-stack 3D projection)” value (VTC-037 GSCs) was “enrichment of JM2 (red) within cells”.
